Earlier results, collected in patent publication US20020128208A1, “Nonpeptide agonists and antagonists of vasopressin receptors” (priority 2000, published 2002).

Biological target: V2, V1a or both receptor
Settings: prior-art antagonists disclosed by other companies; receptor subtype and species not stated

Point of comparison: `Cc1ccc(F)cc1C(=O)Nc1ccc(C(=O)N2Cc3cccn3Cc3ccccc32)c(Cl)c1` [YM35087], Ki 1.8 nM. Against it:
- Cc1ccccc1C(=O)Nc1ccc(C(=O)N2CCCC(N(C)C)c3ccccc32)cc1 (stereo not shown) [OPC-31260] — 12-fold higher, 21.7 nM
- CC(C)(C)NC(=O)c1ccc(S(=O)(=O)N2C(=O)C3(CCC(OCCN4CCOCC4)CC3)c3ccccc32)cc1 (stereo not shown) [SR121463A] — within 1.5-fold, 1.42 nM
- Cc1ccc(F)cc1C(=O)Nc1ccc(C(=O)N2Cc3cccn3Cc3ccccc32)c(Cl)c1 [VPA-985] — 3.6-fold lower, 0.5 nM
